Assay results taken from PMC12913247 (Pharmaceutical Research, 2025).
Values joined by “and” are separate entries in the source; they are usually repeats but may differ in a detail not shown here. Equal values may be shown once.

Key:
OATP1B3 = test: Telmisartan uptake by HIBCPP cells; assay type: cell-based, human; conditions: telmisartan uptake at 4°C, 30 s
Transcellular transport = conditions: human
CAT1 = CAT1 (Homo sapiens, UniProt P30825); test: [3H]L-arginine uptake by HIBCPP cells; assay type: cell-based; conditions: for Relative uptake (% of control): 1 min
Chain of CAT1 (P30825 whole entry): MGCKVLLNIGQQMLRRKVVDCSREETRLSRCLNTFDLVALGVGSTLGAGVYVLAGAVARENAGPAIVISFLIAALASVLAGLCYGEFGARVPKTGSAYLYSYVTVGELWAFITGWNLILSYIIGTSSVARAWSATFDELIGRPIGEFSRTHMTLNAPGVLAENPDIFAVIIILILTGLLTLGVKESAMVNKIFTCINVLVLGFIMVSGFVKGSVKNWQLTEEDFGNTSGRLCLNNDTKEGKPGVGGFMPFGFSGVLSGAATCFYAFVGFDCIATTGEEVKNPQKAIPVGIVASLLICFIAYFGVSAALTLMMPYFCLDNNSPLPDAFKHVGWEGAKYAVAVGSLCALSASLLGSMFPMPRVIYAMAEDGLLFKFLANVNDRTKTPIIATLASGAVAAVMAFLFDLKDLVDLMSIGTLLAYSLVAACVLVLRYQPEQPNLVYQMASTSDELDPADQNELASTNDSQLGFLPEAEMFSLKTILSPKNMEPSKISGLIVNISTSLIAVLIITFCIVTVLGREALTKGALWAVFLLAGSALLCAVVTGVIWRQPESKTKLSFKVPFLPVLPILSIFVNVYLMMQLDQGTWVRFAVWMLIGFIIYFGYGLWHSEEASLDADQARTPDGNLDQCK

HIBCPP cell layer = test: Transcellular transport; conditions: for Papp,correct in the BL-to-AP direction relative to the AP-to-BL direction: BL-to-AP greater than AP-to-BL; for Papp,correct AP-to-BL / Papp,correct BL-to-AP: corrected by lucifer yellow
GLUT1 = biological target: T1, GLUT1 (Homo sapiens, UniProt P11166); test: [3H]3-O-methylglucose uptake by HIBCPP cells; assay type: cell-based; conditions: 10 s, glucose-free IB
T1 sequence (P11166 1-492): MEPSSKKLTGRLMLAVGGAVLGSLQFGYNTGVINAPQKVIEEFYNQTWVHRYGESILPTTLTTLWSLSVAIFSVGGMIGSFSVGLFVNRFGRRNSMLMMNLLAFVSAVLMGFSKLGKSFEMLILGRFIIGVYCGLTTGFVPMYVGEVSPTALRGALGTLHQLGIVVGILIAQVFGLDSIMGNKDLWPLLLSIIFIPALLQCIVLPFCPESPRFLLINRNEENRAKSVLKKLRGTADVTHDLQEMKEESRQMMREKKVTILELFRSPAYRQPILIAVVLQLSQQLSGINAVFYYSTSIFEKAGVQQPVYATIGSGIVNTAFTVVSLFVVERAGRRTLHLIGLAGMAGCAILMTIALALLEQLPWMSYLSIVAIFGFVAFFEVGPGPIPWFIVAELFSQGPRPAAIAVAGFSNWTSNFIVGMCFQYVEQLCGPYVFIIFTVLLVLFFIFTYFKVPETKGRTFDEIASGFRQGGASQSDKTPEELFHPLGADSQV

LAT1 = LAT1 (Homo sapiens, UniProt Q01650); test: Gabapentin uptake by HIBCPP cells; assay type: cell-based
Chain of LAT1 (Q01650 whole entry): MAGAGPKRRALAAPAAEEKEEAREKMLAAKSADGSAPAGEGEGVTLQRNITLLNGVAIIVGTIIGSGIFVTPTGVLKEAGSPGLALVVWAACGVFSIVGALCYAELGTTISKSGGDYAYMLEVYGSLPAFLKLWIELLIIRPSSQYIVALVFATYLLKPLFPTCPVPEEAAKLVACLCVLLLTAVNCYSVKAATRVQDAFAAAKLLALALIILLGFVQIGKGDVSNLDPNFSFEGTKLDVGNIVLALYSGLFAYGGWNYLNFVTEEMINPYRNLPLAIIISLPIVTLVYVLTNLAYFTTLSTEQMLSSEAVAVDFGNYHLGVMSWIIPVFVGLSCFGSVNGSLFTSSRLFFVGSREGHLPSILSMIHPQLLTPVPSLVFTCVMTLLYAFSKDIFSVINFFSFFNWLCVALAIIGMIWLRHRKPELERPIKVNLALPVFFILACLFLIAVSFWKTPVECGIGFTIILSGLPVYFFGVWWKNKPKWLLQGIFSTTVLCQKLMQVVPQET
Chain of LAT1 (P08195 102-630 partner): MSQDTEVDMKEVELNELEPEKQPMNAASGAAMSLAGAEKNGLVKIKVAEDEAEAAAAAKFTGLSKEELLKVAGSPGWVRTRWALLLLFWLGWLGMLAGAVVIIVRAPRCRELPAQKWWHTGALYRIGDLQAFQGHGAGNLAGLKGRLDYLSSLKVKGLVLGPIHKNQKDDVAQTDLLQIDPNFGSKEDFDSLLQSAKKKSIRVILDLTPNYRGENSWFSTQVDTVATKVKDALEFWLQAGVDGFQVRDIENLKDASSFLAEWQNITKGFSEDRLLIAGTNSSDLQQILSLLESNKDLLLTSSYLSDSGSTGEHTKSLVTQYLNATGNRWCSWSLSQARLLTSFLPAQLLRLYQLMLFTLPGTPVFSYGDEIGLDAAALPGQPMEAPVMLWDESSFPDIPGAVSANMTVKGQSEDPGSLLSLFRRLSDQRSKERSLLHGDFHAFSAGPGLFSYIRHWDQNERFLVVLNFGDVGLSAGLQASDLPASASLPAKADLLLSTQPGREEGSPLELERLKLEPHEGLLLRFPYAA

SLC35F2 = biological target: T2, SLC35F2 (Homo sapiens, UniProt Q8IXU6); test: YM155 uptake by HIBCPP cells; assay type: cell-based; conditions: 30 s
T2 sequence (Q8IXU6 1-374): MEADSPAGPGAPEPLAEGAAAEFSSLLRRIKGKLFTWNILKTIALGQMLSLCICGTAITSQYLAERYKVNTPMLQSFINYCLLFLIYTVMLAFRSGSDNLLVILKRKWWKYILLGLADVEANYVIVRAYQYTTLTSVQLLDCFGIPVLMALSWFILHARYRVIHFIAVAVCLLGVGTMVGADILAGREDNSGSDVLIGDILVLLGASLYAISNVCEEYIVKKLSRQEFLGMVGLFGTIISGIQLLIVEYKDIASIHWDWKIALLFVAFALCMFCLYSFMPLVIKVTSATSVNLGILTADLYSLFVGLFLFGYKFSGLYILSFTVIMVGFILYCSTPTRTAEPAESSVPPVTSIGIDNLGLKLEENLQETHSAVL

MCT1 = biological target: T3, MCT1 (Homo sapiens, UniProt P53985); test: [14C]L-lactate uptake by HIBCPP cells; assay type: cell-based; conditions: IB pH 6.0
T3 sequence (P53985 1-500): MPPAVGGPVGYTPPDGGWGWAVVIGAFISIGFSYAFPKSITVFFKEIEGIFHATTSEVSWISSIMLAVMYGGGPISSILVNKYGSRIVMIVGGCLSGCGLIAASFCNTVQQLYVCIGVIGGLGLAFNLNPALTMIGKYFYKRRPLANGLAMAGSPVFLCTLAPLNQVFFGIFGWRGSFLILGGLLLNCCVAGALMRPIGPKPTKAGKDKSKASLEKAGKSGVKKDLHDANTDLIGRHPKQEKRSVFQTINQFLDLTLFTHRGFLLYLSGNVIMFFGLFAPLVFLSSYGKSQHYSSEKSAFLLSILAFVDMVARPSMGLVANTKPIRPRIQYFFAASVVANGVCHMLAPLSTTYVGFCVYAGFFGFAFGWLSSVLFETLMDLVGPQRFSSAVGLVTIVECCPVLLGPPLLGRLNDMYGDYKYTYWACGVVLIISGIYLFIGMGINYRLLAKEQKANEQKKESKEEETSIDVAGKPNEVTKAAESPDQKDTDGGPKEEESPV

PMAT = test: MPP+ uptake by HIBCPP cells; assay type: cell-based, human; conditions: 5 min
GLAST = GLAST (Homo sapiens, UniProt P43003); test: [3H]L-glutamate uptake by HIBCPP cells; assay type: cell-based; conditions: 1 min
Chain of GLAST (P43003 whole entry): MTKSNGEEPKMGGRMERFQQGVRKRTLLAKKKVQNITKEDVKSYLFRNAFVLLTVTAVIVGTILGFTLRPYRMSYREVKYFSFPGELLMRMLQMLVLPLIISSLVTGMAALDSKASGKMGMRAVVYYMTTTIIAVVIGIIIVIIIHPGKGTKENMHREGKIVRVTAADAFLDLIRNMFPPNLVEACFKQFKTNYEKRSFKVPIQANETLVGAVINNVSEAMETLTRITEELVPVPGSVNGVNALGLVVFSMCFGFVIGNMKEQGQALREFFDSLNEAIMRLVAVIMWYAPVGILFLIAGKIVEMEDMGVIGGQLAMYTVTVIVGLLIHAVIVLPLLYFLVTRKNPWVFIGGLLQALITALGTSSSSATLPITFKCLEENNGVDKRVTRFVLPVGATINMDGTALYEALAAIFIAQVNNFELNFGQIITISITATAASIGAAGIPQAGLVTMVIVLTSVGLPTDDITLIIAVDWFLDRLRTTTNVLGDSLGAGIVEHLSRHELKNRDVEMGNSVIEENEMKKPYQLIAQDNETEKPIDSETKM

[1] = Papp,correct (AP-to-BL)/Papp,correct (BL-to-AP)

Molecule: CCCc1nc2c(C)cc(-c3nc4ccccc4n3C)cc2n1Cc1ccc(-c2ccccc2C(=O)O)cc1 [Telmisartan]
- Relative uptake (% of control) (OATP1B3): 22.9 ± 1.4 % of control
- Papp A→B at 2 h (Transcellular transport): 0.9 ± 0.23 ×10⁻⁶ cm/s
- Papp B→A (Transcellular transport): 10.5 ± 3.3 ×10⁻⁶ cm/s
- Papp B→A at 2 h (Transcellular transport): 13.8 ± 3.3 ×10⁻⁶ cm/s
- Efflux ratio (Transcellular transport; Efflux ratio, Papp,correct (AP-to-BL)/Papp,correct (BL-to-AP)): < 1

Molecule: NC(N)=NCCC[C@H](N)C(=O)O [[^3H]L-Arginine, arginine L-[2,3,4-^3H]]
- Relative uptake (% of control) (CAT1; [3H]L-arginine uptake at 4°C): 6.80 ± 0.69 % of control
- Decrease of uptake at low temperatures (CAT1; [3H]L-arginine uptake, low temperature (4°C)): > 90%
- Reduction of uptake into HIBCPP cells (CAT1; [3H]L-arginine, at 4 °C or in the presence of respective inhibitor): more than 80%
- Efflux ratio (HIBCPP cell layer; [1]): exceed 1

Molecule: OC[C@H]1OC(O)[C@H](O)[C@@H](O)[C@@H]1O (some centres unmarked) [Glucose]
- Relative uptake (% of control) (GLUT1; [3H]3-O-methylglucose uptake + 5.6 mM glucose): 54.7 ± 1.4 % of control

Molecule: NCC1(CC(=O)O)CCCCC1 [Gabapentin]
- Relative uptake (% of control) (LAT1; gabapentin uptake at 4°C, 1 min): 9.24 ± 0.54 % of control
- Decrease of uptake at low temperatures (LAT1; gabapentin uptake, low temperature (4°C)): > 90%
- Reduction of uptake into HIBCPP cells (LAT1; gabapentin, at 4 °C or in the presence of respective inhibitor): more than 80%
- Papp A→B (Transcellular transport): 10.8 ± 0.6 ×10⁻⁶ cm/s
- Papp A→B at 2 h (Transcellular transport): 14.1 ± 0.6 ×10⁻⁶ cm/s
- Papp B→A (Transcellular transport): 0.213 ± 0.078 ×10⁻⁶ cm/s
- Papp B→A at 2 h (Transcellular transport): 3 ± 0.08 ×10⁻⁶ cm/s
- Efflux ratio (HIBCPP cell layer; [1]): 50.7

Molecule: NCCC[C@H](N)C(=O)O [L-Ornithine]
- Relative uptake (% of control) (CAT1; [3H]L-arginine uptake + 1 mM L-ornithine): 18.7 ± 0.2 % of control

Molecule: O=C1CN(/N=C/c2ccc(-c3ccc([N+](=O)[O-])cc3)o2)C(O)=N1 [Dantrolene, Dantrolene sodium]
- Papp A→B (Transcellular transport): 5.98 ± 0.77 ×10⁻⁶ cm/s
- Papp A→B at 2 h (Transcellular transport): 9.28 ± 0.77 ×10⁻⁶ cm/s
- Papp B→A (Transcellular transport): 11.5 ± 0.9 ×10⁻⁶ cm/s
- Papp B→A at 2 h (Transcellular transport): 14.8 ± 0.9 ×10⁻⁶ cm/s
- Papp,correct in the BL-to-AP direction relative to the AP-to-BL direction (HIBCPP cell layer): 2 times
- Efflux ratio (HIBCPP cell layer; [1]): 0.52

Molecule: NC(N)=Nc1nc(CSCCC(N)=NS(N)(=O)=O)cs1 [Famotidine]
- Relative uptake (% of control) (SLC35F2; YM155 uptake + 1 mM famotidine): 40.0 ± 8.5 % of control

Molecule: Cc1[nH]nc(C(F)(F)F)c1Cc1sc2c(c1C(=O)N1C[C@](C)(O)CO1)c(=O)n(C)c(=O)n2C(C)C [AZD3965]
- Relative uptake (% of control) (MCT1; [14C]L-lactate uptake + 20 nM AZD3965, 30 s): 28.0 % of control and 28.0 ± 1.6 % of control

Molecule: C[n+]1ccc(-c2ccccc2)cc1 [MPP^+, 1-methyl-4-phenylpyridinium]
- Relative uptake (% of control) (PMAT; MPP+ uptake at 4°C): 22.2 ± 5.5 % of control
- Efflux ratio (HIBCPP cell layer; [1]): 1.03

Molecule: COCCn1c2c([n+](Cc3cnccn3)c1C)C(=O)c1ccccc1C2=O [YM155]
- Relative uptake (% of control) (SLC35F2; YM155 uptake at 4°C): 27.8 ± 3.0 % of control
- Papp A→B (Transcellular transport): 3.36 ± 0.34 ×10⁻⁶ cm/s
- Papp A→B at 2 h (Transcellular transport): 6.66 ± 0.34 ×10⁻⁶ cm/s
- Papp B→A (Transcellular transport): 1.32 ± 0.37 ×10⁻⁶ cm/s
- Papp B→A at 2 h (Transcellular transport): 4.59 ± 0.37 ×10⁻⁶ cm/s

Molecule: [14CH3][14CH](O)[14C](=O)[O-].[Na+] [[^14C]L-Lactate, lactic acid L-[^14C(U)] Na salt]
- Relative uptake (% of control) (MCT1; [14C]L-lactate uptake at 4°C, 30 s): 17.7 % of control and 17.7 ± 0.4 % of control
- Papp AP-to-BL (HIBCPP cell layer; AP side pH 6.0 BL side pH 7.4): 30.6 ± 2.0 × 10^–6 cm/sec
- Papp BL-to-AP (HIBCPP cell layer; AP side pH 6.0 BL side pH 7.4): 4.71 ± 0.14 × 10^–6 cm/sec
- Efflux ratio (HIBCPP cell layer; AP side pH 6.0 BL side pH 7.4, Papp,correct (AP-to-BL)/(BL-to-AP)): 19.0
- Papp,correct AP-to-BL (HIBCPP cell layer; AP side pH 6.0 BL side pH 7.4): 27.3 ± 2.0 × 10^–6 cm/sec
- Papp,correct BL-to-AP (HIBCPP cell layer; AP side pH 6.0 BL side pH 7.4): 1.44 ± 0.14 × 10^–6 cm/sec
- Papp AP-to-BL (HIBCPP cell layer; AP side pH 7.4 BL side pH 6.0): 3.05 ± 0.09 × 10^–6 cm/sec
- Papp BL-to-AP (HIBCPP cell layer; AP side pH 7.4 BL side pH 6.0): 11.5 ± 0.1 × 10^–6 cm/sec
- Papp,correct BL-to-AP (HIBCPP cell layer; AP side pH 7.4 BL side pH 6.0): 8.20 ± 0.11 × 10^–6 cm/sec
- Papp AP-to-BL (HIBCPP cell layer; AP side pH 7.4 BL side pH 7.4): 9.56 ± 0.20 × 10^–6 cm/sec
- Papp BL-to-AP (HIBCPP cell layer; AP side pH 7.4 BL side pH 7.4): 8.84 ± 0.36 × 10^–6 cm/sec
- Efflux ratio (HIBCPP cell layer; AP side pH 7.4 BL side pH 7.4, Papp,correct (AP-to-BL)/(BL-to-AP)): 1.12
- Papp,correct AP-to-BL (HIBCPP cell layer; AP side pH 7.4 BL side pH 7.4): 6.26 ± 0.20 × 10^–6 cm/sec
- Papp,correct BL-to-AP (HIBCPP cell layer; AP side pH 7.4 BL side pH 7.4): 5.57 ± 0.36 × 10^–6 cm/sec

Molecule: [3H]CO[C@H]1[C@H](O)[C@@H](CO)OC(O)[C@@H]1O (stereo partly drawn) [[^3H]3-O-Methylglucose, methyl-D-glucose 3-O-[methyl-^3H]]
- Relative uptake (% of control) (GLUT1; [3H]3-O-methylglucose uptake at 4°C): 14.0 ± 1.3 % of control
- Efflux ratio (HIBCPP cell layer; [1]): 1.05

Molecule: Nc1cc(COc2c(Cl)cc(C[C@H](N)C(=O)O)cc2Cl)c2oc(-c3ccccc3)nc2c1 [JPH203]
- Relative uptake (% of control) (LAT1; gabapentin uptake + 10 μM JPH203, 1 min): 13.1 ± 0.2 % of control

Molecule: glutamic acid L-[2,3,4-^3H] [[^3H]L-Glutamate]
- Relative uptake (% of control) (GLAST; [3H]L-glutamate uptake at 4°C): 17.7 ± 3.0 % of control
- Relative uptake (% of control) (GLAST; [3H]L-glutamate uptake at 4°C, listed as [^3H]L-glutamate): 17.7 % of control
- Papp,correct in the BL-to-AP direction relative to the AP-to-BL direction (HIBCPP cell layer): approximately 2 times
- Efflux ratio (HIBCPP cell layer; [1]): 0.45
- Efflux ratio (HIBCPP cell layer; Papp,correct (AP-to-BL)/Papp,correct (BL-to-AP), listed as [^3H]L-glutamate): below 1

Molecule: NCCc1c[nH]c2ccc(O)cc12 [Serotonin]
- Relative uptake (% of control) (PMAT; MPP+ uptake + 1 mM serotonin): 48.6 ± 5.1 % of control

Molecule: N[C@@H](CC(=O)O)C(=O)O [L-Aspartic acid]
- Relative uptake (% of control) (GLAST; [3H]L-glutamate uptake + 1 mM L-aspartic acid): 65.3 ± 4.9 % of control
- Relative uptake (% of control) (GLAST; [3H]L-glutamate uptake + 1 mM L-aspartic acid, listed as L-aspartic acid): 65.3 % of control
